Converted amounts (≈) assume the structure as drawn. Where two headings read alike, the source gives them in different places. Residues, ends and D or L forms follow the SMILES beside them.
Key:
[1] = tested on: B. subtilis (ATCC 6633); test: microbe, parasite or virus in culture; assay type: cell-based; conditions: ATCC 6633
Source text: (§1) Piscidin-1 and its analogs were examined for bacterial growth-inhibiting activity in liquid cultures against Gram-positive bacteria including MRSA strains and Gram-negative bacteria (Table 2). […] The therapeutic index is a parameter that signify the specificity or selectivity of antimicrobial agents towards microorganisms over mammalian cells.
(§2) Antibacterial assays with all the peptides were done in 96-well microtiter plates against different Gram-positive, Gram-negative and resistant bacteria as described earlier.

[2] = tested on: K. pneumoniae (ATCC 27736); test: microbe, parasite or virus in culture; assay type: cell-based; conditions: ATCC 27736
Source text: as §1, §2

[3] = tested on: P. aeruginosa (ATCC BAA-427); test: microbe, parasite or virus in culture; assay type: cell-based; conditions: ATCC BAA-427
Source text: as §1, §2

[4] = tested on: Staphylococcus aureus (ATCC 25923); test: microbe, parasite or virus in culture; assay type: cell-based; conditions: ATCC 25923
Source text: as §1, §2

[5] = tested on: Staphylococcus aureus (ATCC 29213); test: microbe, parasite or virus in culture; assay type: cell-based; conditions: ATCC 29213
Source text: as §1, §2

[6] = tested on: Staphylococcus aureus (ATCC 1708 MRSA); test: microbe, parasite or virus in culture; conditions: ATCC 1708
Source text: as §1, §2

[7] = tested on: Staphylococcus aureus (ATCC 33592 Gentamycin Resistant); test: microbe, parasite or virus in culture; conditions: ATCC 33592
Source text: as §1, §2

[8] = tested on: Staphylococcus aureus (ATCC 700698 MRSA); test: microbe, parasite or virus in culture; conditions: ATCC 700698
Source text: as §1, §2

[9] = tested on: Staphylococcus aureus (ATCC 700699 MRSA); test: microbe, parasite or virus in culture; conditions: ATCC 700699
Source text: as §1, §2

[10] = tested on: Staphylococcus aureus (ATCC BAA-44 MRSA); test: microbe, parasite or virus in culture; conditions: ATCC BAA-44
Source text: as §1, §2

[11] = tested on: E. coli (ATCC 25922); test: Antibacterial activity (MIC), liquid culture in 96-well microtiter plates; assay type: cell-based; conditions: means of three independent experiments each in duplicate ± SD, read-out: Minimum inhibitory conc. (MIC) against bacteria 11
Source text: as §1, §2

[12] = tested on: human red blood cells (hRBCs); assay type: cell-based
Source text: Cytotoxic activity of piscidin-1 and its designed analogs was examined by assaying the lysis of human red blood cells (hRBCs) and the viability of murine 3T3 cells in presence of these peptides. […] Introduction of D-lysine (dK)residues instead of threonine residues at 15th & 21st positions further reduced the haemolytic activity of piscidin-1 (Fig. 1A). Overall, haemolytic activity of these peptides against hRBCs followed the order piscidin-1 > T15K-piscidin-1 > T15dK-piscidin-1 > T15,21K-piscidin-1 > T15,21dK-piscidin-1. Viability of 3T3 cells as determined by MTT assay in the presence of these peptides followed the same trend as their haemolytic activity (Fig. 1B).
Haemolytic activity of the peptides against human red blood cells in PBS was performed by assaying the ability of the peptides to lyse the hRBCs[24][48]. For this purpose, fresh human red blood cells (hRBCs) were collected in the presence of an anti-coagulant from a healthy volunteer. After washing the blood three times with PBS haemolytic activity of the peptides were determined as reported previously. Methodology of our experiment with human blood was in accordance with relevant guidelines and regulations of CSIR-central drug research institute ethics committee and was approved by it with approval No. CDRI/IEC/2014/A5. Further, informed consent was obtained from the healthy volunteer before collection of blood as per the guideline of our Institutional ethics committee.

[13] = tested on: E. coli 0111:B4 LPS-administered mice; test: In vivo anti-LPS activity: survival of LPS-administered mice (septic shock); conditions: BALB/c mice, monitored 7 days; for survival of LPS-administered mice: n = 5
Description: Septic shock in BALB/c mice was induced by intraperitoneal (i.p.) injection of E. coli LPS (12 mg/kg) followed by i.p. injection of T15,21K-piscidin-1 (0.5 mg/Kg) or T15,21dK-piscidin-1 (1 mg/Kg) or polymyxin B (1 mg/Kg) ~5 min later. Mice treated with only saline was taken as control. Survival of the animals (n = 5) was monitored for 7 days (***p < 0.0001, log-rank test).
Polymyxin B was taken as the positive control and the experiments were performed as reported earlier[14][30][31].
In vivo studies, treat ment of Mice
Female BALB/c mice (National laboratory animal centre, central drug research institute,
Lucknow) we re given a s tandard laborato r y diet an d water ad libitum and housed under controlled
environmental conditions. The mice wer e approx imatel y 25 g each at the st art of experiments. All
the mice were divided into experimental groups for the administration of LPS and peptides. Mice
were treated with 12 m g/ kg E. coli 0111: B4 LPS i n presen ce and in absen ce of peptide in different
experimental groups. The mice treated with saline onl y, in absence of LP S were considered as
experimental controls. To study the efficacy of a peptide in neutralizing LPS-induced pro-
inflammatory responses in mice ~5 min post LPS treatment, the respective peptide was
administered i.p. at a site other than the one, used for LPS injection. […] Survival of mice was
monitored for 7 da ys. Survival of mice was also mo nitored following th e treatment of onl y p eptides
for investigating their toxic effects.

[14] = no LPS, BALB/c mice, data not shown
[15] = tested on: hRBCs; test: Localization of NBD-labelled peptides onto hRBCs by confocal microscopy, quantitative fluorescence; assay type: cell-based, human; conditions: NBD-labelled peptides ~10.0 μM, at least 25 cells analysed
Source text: Figure 3 Confocal laser scanning microscopy to look into the localization of piscidin-1 and its selected analogs onto E. coli and hRBCs. […] Fluorescence and DIC images for treatment of different cells with each of the peptides are shown as marked on top of the respective panel. Panels (C) and (D) show the quantitative analysis of fluorescence intensity of E. coli and hRBCsbound to NBD-labeled piscidin-1, T15,21K-piscidin-1 and T15,21dK-piscidin-1 respectively.
The localization of NBD-labeled piscidin-1, T15,21K-piscidin-1 and T15,21dK-piscidin-1 was also studied onto hRBCs by confocal microscopy. […] Quantitative analyses of the confocal microscopic fluorescence images were carried out. At least 25 cells from fluorescence images for each set of experiments were included in the analysis. The results are shown at the bottom of the fluorescence images of the respective cells (Fig. 3C and D).

| Compound | Minimum inhibitory conc. (MIC) against bacteria 9 [1] [µM] | Minimum inhibitory conc. (MIC) against bacteria 10 [2] [µM] | Minimum inhibitory conc. (MIC) against bacteria 8 [3] [µM] | Minimum inhibitory conc. (MIC) against bacteria 1 [4] [µM] | Minimum inhibitory conc. (MIC) against bacteria 2 [5] [µM] | Minimum inhibitory conc. (MIC) against bacteria 7 [6] [µM] | Minimum inhibitory conc. (MIC) against bacteria 4 [7] [µM] | Minimum inhibitory conc. (MIC) against bacteria 6 [8] [µM] | Minimum inhibitory conc. (MIC) against bacteria 3 [9] [µM] | Minimum inhibitory conc. (MIC) against bacteria 5 [10] [µM] | MIC [11] [µM] | HC50, peptide concentration leading to 50% lysis of human RBC [12] [µM] | survival of LPS-administered mice ([13]; peptide 1.0 mg/Kg i.p. ~5 min after LPS 12.0 mg/Kg i.p.) [%] | mortality rate of LPS-administered mice ([13]; single dose 1.0 mg/kg i.p. after LPS 12 mg/kg) | survival of control mice treated only with peptide ([14]; 1.0 mg/kg) [%] | survival of LPS-administered mice ([13]; peptide 0.5 mg/Kg i.p. ~5 min after LPS 12.0 mg/Kg i.p.) [%] | mortality rate of LPS-administered mice ([13]; single dose 0.5 mg/kg i.p. after LPS 12 mg/kg) | survival of control mice treated only with peptide ([14]; 0.5 mg/kg) [%] | fold lower fluorescence of hRBCs bound to peptide than cells bound to NBD-labeled piscidin-1 [15] |
| --- | --- | --- | --- | --- | --- | --- | --- | --- | --- | --- | --- | --- | --- | --- | --- | --- | --- | --- | --- |
| CC[C@H](C)[C@H](NC(=O)CNC(=O)[C@H](CCCNC(=N)N)NC(=O)[C@H](Cc1ccccc1)NC(=O)[C@@H](NC(=O)[C@H](Cc1c[nH]cn1)NC(=O)[C@H](Cc1c[nH]cn1)NC(=O)[C@H](Cc1ccccc1)NC(=O)[C@@H](N)Cc1ccccc1)[C@@H](C)CC)C(=O)N[C@H](C(=O)N[C@@H](Cc1c[nH]cn1)C(=O)N[C@H](C(=O)NCC(=O)N[C@@H](CCCCN)C(=O)N[C@H](CCCCN)C(=O)N[C@H](C(=O)N[C@@H](Cc1c[nH]cn1)C(=O)N[C@@H](CCCNC(=N)N)C(=O)N[C@@H](CC(C)C)C(=O)N[C@H](C(=O)N[C@H](CCCCN)C(=O)NCC(N)=O)C(C)C)[C@@H](C)CC)C(C)C)C(C)C [T15,21dK Piscidin-1] (HELM PEPTIDE1{F.F.H.H.I.F.R.G.I.V.H.V.G.K.[dK].I.H.R.L.V.[dK].G.[am]}$$$$V2.0) | 9.0 ± 1.3 (≈ 23.6 µg/mL) | 5.0 ± 0.7 (≈ 13.1 µg/mL) | 9.0 ± 1.3 (≈ 23.6 µg/mL) | 5.0 ± 0.7 (≈ 13.1 µg/mL) | 5.0 ± 0.7 (≈ 13.1 µg/mL) | 5.0 ± 0.7 (≈ 13.1 µg/mL) | 5.0 ± 0.7 (≈ 13.1 µg/mL) | 10.0 ± 1.4 (≈ 26.3 µg/mL) | 10.0 ± 1.4 (≈ 26.3 µg/mL) | 5.0 ± 0.7 (≈ 13.1 µg/mL) | 5.0 (≈ 13.1 µg/mL) | 500 | 100 | zero | 100 | – | – | – | – |
| H-FFHHIFRGIVHVGKKIHRLVKG-NH2 [T15,21K Piscidin-1] | 5.0 ± 0.7 | 3.0 ± 0.4 | 5.0 ± 0.7 | 1.25 ± 0.3 | 2.5 ± 0.4 | 1.25 ± 0.3 | 2.5 ± 0.4 | 2.5 ± 0.4 | 2.5 ± 0.4 | 1.25 ± 0.3 | 2.0 | 200 | – | – | – | 100 | zero | 100 | – |
| X-FFHHIFRGIVHVGKKIHRLVKG–amide [NBD-T15,21K-piscidin-1, T15,21K-piscidin-1 labelled at its N-terminus by NBD] | – | – | – | – | – | – | – | – | – | – | – | – | – | – | – | – | – | – | about 5 fold |
| X-FFHHIFRGIVHVGKkIHRLVkG–amide [NBD-T15,21dK-piscidin-1, T15,21dK-piscidin-1 labelled at its N-terminus by NBD] | – | – | – | – | – | – | – | – | – | – | – | – | – | – | – | – | – | – | ~7.5 fold |

— article PMC5209718, “Piscidin-1-analogs with double L- and D-lysine residues exhibited different conformations in lipopolysaccharide but comparable anti-endotoxin activities” (Scientific Reports, 2017)
